In patent US20100267561A1, “HERBICIDAL PYRIDAZINONE DERIVATIVES” (priority 2007, published 2010):

How the values were obtained:
Format in all cases: in vivo
[1] = test system: Italian ryegrass (Lolium multiflorum); experiment: Test B pre-/postemergence plant response
Method in brief: (§1)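 Visual scoring from 0 (no effect) to 100 (complete control) against untreated controls was done 13 to 15 days after greenhouse treatment. Chemicals were formulated in a surfactant-containing non-phytotoxic solvent and applied to soil preemergence or to 1- to 4-leaf (2-18 cm) plants postemergence.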

[2] = test system: Russian thistle (Salsola iberica); experiment: Test B pre-/postemergence plant response; conditions: Preemergence
Method in brief: as §1

[3] = test system: bermudagrass (Cynodon dactylon); experiment: Test B pre-/postemergence plant response; conditions: for Bermudagrass plant response rating: 8 g ai/ha
Method in brief: as §1

[4] = test system: cocklebur (Xanthium strumarium); experiment: Test B pre-/postemergence plant response; conditions: for Cocklebur plant response rating: 8 g ai/ha
Method in brief: as §1

[5] = test system: common ragweed (Ambrosia elation); experiment: Test B pre-/postemergence plant response
Method in brief: as §1

[6] = test system: goosegrass (Eleusine indica); experiment: Test B pre-/postemergence plant response
Method in brief: as §1

[7] = test system: lambsquarters (Chenopodium album); experiment: Test B pre-/postemergence plant response
Method in brief: as §1

[8] = test system: large crabgrass (Digitaria sanguinalis); experiment: Test B pre-/postemergence plant response
Method in brief: as §1

soybean (Glycine max) = experiment: Test B pre-/postemergence plant response
Method in brief: as §1

[9] = test system: velvetleaf (Abutilon theophrasti); experiment: Test B pre-/postemergence plant response
Method in brief: as §1

[10] = test system: barnyardgrass (Echinochloa crus-galli); experiment: Test B flooded paddy test plant response
Method in brief: (§2)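 Compounds were added directly to paddy water over 2-leaf-stage plants in pots flooded 3 cm above soil, water depth maintained. Visual injury scored against controls after 13 to 15 days in greenhouse, 0 (none) to 100 (complete control); dash indicates no result.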

[11] = test system: ducksalad (Heteranthera limosa); experiment: Test B flooded paddy test plant response
Method in brief: as §2

rice (Oryza sativa) = experiment: Test B flooded paddy test plant response
Method in brief: as §2

[12] = test system: umbrella sedge (Cyperus difformis); experiment: Test B flooded paddy test plant response
Method in brief: as §2

[13] = 8 g ai/ha, postemergence, 0-100 scale
[14] = Postemergence, 16 g ai/ha, scale 0 to 100
[15] = Postemergence, 31 g ai/ha, scale 0 to 100
[16] = Postemergence, 62 g ai/ha, scale 0 to 100, 0 no effect, 100 complete control
[17] = Preemergence, 31 g ai/ha, scale 0 to 100 (0 no effect, 100 complete control)
[18] = Preemergence, 62 g ai/ha, scale 0 to 100
[19] = Preemergence, 8 g ai/ha, scale 0 to 100
[20] = Preemergence, 16 g ai/ha, scale 0 to 100
[21] = 31 g ai/ha, scale 0 to 100 (0 no effect, 100 complete control)
[22] = Preemergence, scale 0 to 100 (0 no effect, 100 complete control)
[23] = Preemergence, 16 g ai/ha, scale 0 to 100 (0 no effect, 100 complete control)
[24] = Preemergence, 31 g ai/ha, 0 to 100 scale, 0 no effect, 100 complete control
[25] = Preemergence, 62 g ai/ha, 0 to 100 scale, 0 no effect, 100 complete control
[26] = Flood (flooded paddy test), 62 g ai/ha, scale 0 to 100, 0 no effect, 100 complete control
[27] = Flood (flooded paddy test), 125 g ai/ha, scale 0 to 100, 0 no effect, 100 complete control
[28] = Flood (flooded paddy test), 250 g ai/ha, scale 0 to 100, 0 no effect, 100 complete control
[29] = Flood, 31 g ai/ha, scale 0 to 100

CCOC(=O)Oc1cnn(C)c(=O)c1-n1nc(-c2ccc(Cl)cc2)cc1C [Compound 53]
Ryegrass, Italian plant response rating [1, 13]: 85
Plant response rating, Ryegrass, Italian [1, 14]: 90
Plant response rating, Ryegrass, Italian [1, 15]: 100
Plant response rating, Ryegrass, Italian [1, 16]: 100
Plant response rating, Ryegrass, Italian [1, 17]: 100
Plant response rating, Ryegrass, Italian [1, 18]: 100
Ryegrass, Italian plant response rating [1, 19]: 80
Ryegrass, Italian plant response rating [1, 20]: 100
Plant response rating, Russian Thistle [2, 21]: 0
Plant response rating, Russian Thistle ([2]; 62 g ai/ha, scale 0 to 100): 0
Russian Thistle plant response rating ([2]; 8 g ai/ha, scale 0 to 100): 0
Russian Thistle plant response rating ([2]; 16 g ai/ha, scale 0 to 100): 0
Bermudagrass plant response rating ([3]; postemergence, 0-100 scale): 70
Plant response rating, Bermudagrass [3, 14]: 100
Plant response rating, Bermudagrass [3, 15]: 100
Plant response rating, Bermudagrass [3, 16]: 100
Bermudagrass plant response rating [3, 22]: 0
Plant response rating, Bermudagrass [3, 23]: 0
Plant response rating, Bermudagrass [3, 24]: 0
Plant response rating, Bermudagrass [3, 18]: 0
Cocklebur plant response rating ([4]; postemergence, 0-100 scale): 0
Plant response rating, Cocklebur [4, 14]: 0
Plant response rating, Cocklebur [4, 15]: 0
Plant response rating, Cocklebur [4, 16]: 0
Plant response rating, Cocklebur [4, 23]: 0
Plant response rating, Cocklebur [4, 24]: 0
Plant response rating, Cocklebur [4, 18]: 0
Cocklebur plant response rating ([4]; Preemergence, scale 0 to 100): 0
Ragweed plant response rating [5, 13]: 0
Plant response rating, Ragweed [5, 14]: 0
Plant response rating, Ragweed [5, 15]: 0
Plant response rating, Ragweed [5, 16]: 0
Plant response rating, Ragweed [5, 17]: 0
Plant response rating, Ragweed [5, 18]: 0
Ragweed plant response rating [5, 19]: 0
Ragweed plant response rating [5, 20]: 0
Goosegrass plant response rating [6, 13]: 20
Plant response rating, Goosegrass [6, 14]: 60
Plant response rating, Goosegrass [6, 15]: 65
Plant response rating, Goosegrass [6, 16]: 100
Plant response rating, Goosegrass [6, 24]: 0
Plant response rating, Goosegrass [6, 18]: 0
Goosegrass plant response rating [6, 19]: 0
Goosegrass plant response rating [6, 20]: 0
Lambsquarters plant response rating [7, 13]: 0
Plant response rating, Lambsquarters [7, 14]: 0
Plant response rating, Lambsquarters [7, 15]: 0
Plant response rating, Lambsquarters [7, 16]: 0
Plant response rating, Lambsquarters [7, 24]: 0
Plant response rating, Lambsquarters [7, 18]: 35
Lambsquarters plant response rating [7, 19]: 0
Lambsquarters plant response rating [7, 20]: 0
Crabgrass, Large plant response rating [8, 13]: 65
Plant response rating, Crabgrass, Large [8, 14]: 85
Plant response rating, Crabgrass, Large [8, 15]: 90
Plant response rating, Crabgrass, Large [8, 16]: 100
Plant response rating, Crabgrass, Large [8, 24]: 0
Plant response rating, Crabgrass, Large [8, 18]: 0
Crabgrass, Large plant response rating [8, 19]: 0
Crabgrass, Large plant response rating [8, 20]: 0
Soybean plant response rating (soybean (Glycine max); [13]): 0
Plant response rating, Soybean (soybean (Glycine max); [14]): 0
Plant response rating, Soybean (soybean (Glycine max); [15]): 0
Plant response rating, Soybean (soybean (Glycine max); [16]): 0
Plant response rating, Soybean (soybean (Glycine max); [17]): 0
Plant response rating, Soybean (soybean (Glycine max); [18]): 65
Soybean plant response rating (soybean (Glycine max); [19]): 0
Soybean plant response rating (soybean (Glycine max); [20]): 0
Velvetleaf plant response rating [9, 13]: 0
Plant response rating, Velvetleaf [9, 14]: 0
Plant response rating, Velvetleaf [9, 15]: 0
Plant response rating, Velvetleaf [9, 16]: 0
Plant response rating, Velvetleaf [9, 17]: 0
Plant response rating, Velvetleaf [9, 25]: 0
Velvetleaf plant response rating [9, 19]: 0
Velvetleaf plant response rating [9, 20]: 0
Plant response rating, Barnyardgrass [10, 26]: 0
Plant response rating, Barnyardgrass [10, 27]: 0
Plant response rating, Barnyardgrass [10, 28]: 40
Plant response rating, Barnyardgrass [10, 29]: 0
Plant response rating, Ducksalad [11, 26]: 0
Plant response rating, Ducksalad [11, 27]: 50
Plant response rating, Ducksalad [11, 28]: 50
Plant response rating, Ducksalad [11, 29]: 0
Plant response rating, Rice (rice (Oryza sativa); [26]): 0
Plant response rating, Rice (rice (Oryza sativa); [27]): 0
Plant response rating, Rice (rice (Oryza sativa); [28]): 30
Plant response rating, Rice (rice (Oryza sativa); [29]): 0
Plant response rating, Sedge, Umbrella [12, 26]: 0
Plant response rating, Sedge, Umbrella [12, 27]: 40
Plant response rating, Sedge, Umbrella [12, 28]: 70
Plant response rating, Sedge, Umbrella [12, 29]: 0

Cc1cc(-c2ccc(Cl)cc2)nn1-c1c(OC(=O)Oc2ccccc2)cnn(C)c1=O [Compound 54]
Ryegrass, Italian plant response rating [1, 13]: 75
Plant response rating, Ryegrass, Italian [1, 14]: 95
Plant response rating, Ryegrass, Italian [1, 15]: 95
Plant response rating, Ryegrass, Italian [1, 16]: 100
Plant response rating, Ryegrass, Italian [1, 17]: 90
Plant response rating, Ryegrass, Italian [1, 18]: 100
Ryegrass, Italian plant response rating [1, 19]: 20
Ryegrass, Italian plant response rating [1, 20]: 90
Plant response rating, Russian Thistle [2, 21]: 0
Plant response rating, Russian Thistle ([2]; 62 g ai/ha, scale 0 to 100): 0
Russian Thistle plant response rating ([2]; 8 g ai/ha, scale 0 to 100): 0
Russian Thistle plant response rating ([2]; 16 g ai/ha, scale 0 to 100): 0
Bermudagrass plant response rating ([3]; postemergence, 0-100 scale): 100
Plant response rating, Bermudagrass [3, 14]: 100
Plant response rating, Bermudagrass [3, 15]: 100
Plant response rating, Bermudagrass [3, 16]: 100
Bermudagrass plant response rating [3, 22]: 0
Plant response rating, Bermudagrass [3, 23]: 0
Plant response rating, Bermudagrass [3, 24]: 0
Plant response rating, Bermudagrass [3, 18]: 0
Cocklebur plant response rating ([4]; postemergence, 0-100 scale): 0
Plant response rating, Cocklebur [4, 14]: 0
Plant response rating, Cocklebur [4, 15]: 0
Plant response rating, Cocklebur [4, 16]: 0
Plant response rating, Cocklebur [4, 23]: 0
Plant response rating, Cocklebur [4, 24]: 0
Plant response rating, Cocklebur [4, 18]: 0
Cocklebur plant response rating ([4]; Preemergence, scale 0 to 100): 0
Ragweed plant response rating [5, 13]: 0
Plant response rating, Ragweed [5, 14]: 0
Plant response rating, Ragweed [5, 15]: 0
Plant response rating, Ragweed [5, 16]: 0
Plant response rating, Ragweed [5, 17]: 0
Plant response rating, Ragweed [5, 18]: 0
Ragweed plant response rating [5, 19]: 0
Ragweed plant response rating [5, 20]: 0
Goosegrass plant response rating [6, 13]: 55
Plant response rating, Goosegrass [6, 14]: 65
Plant response rating, Goosegrass [6, 15]: 70
Plant response rating, Goosegrass [6, 16]: 98
Plant response rating, Goosegrass [6, 24]: 0
Plant response rating, Goosegrass [6, 18]: 0
Goosegrass plant response rating [6, 19]: 0
Goosegrass plant response rating [6, 20]: 0
Lambsquarters plant response rating [7, 13]: 0
Plant response rating, Lambsquarters [7, 14]: 0
Plant response rating, Lambsquarters [7, 15]: 0
Plant response rating, Lambsquarters [7, 16]: 0
Plant response rating, Lambsquarters [7, 24]: 0
Plant response rating, Lambsquarters [7, 18]: 0
Lambsquarters plant response rating [7, 19]: 0
Lambsquarters plant response rating [7, 20]: 0
Crabgrass, Large plant response rating [8, 13]: 65
Plant response rating, Crabgrass, Large [8, 14]: 85
Plant response rating, Crabgrass, Large [8, 15]: 98
Plant response rating, Crabgrass, Large [8, 16]: 98
Plant response rating, Crabgrass, Large [8, 24]: 0
Plant response rating, Crabgrass, Large [8, 18]: 0
Crabgrass, Large plant response rating [8, 19]: 0
Crabgrass, Large plant response rating [8, 20]: 0
Soybean plant response rating (soybean (Glycine max); [13]): 0
Plant response rating, Soybean (soybean (Glycine max); [14]): 0
Plant response rating, Soybean (soybean (Glycine max); [15]): 0
Plant response rating, Soybean (soybean (Glycine max); [16]): 0
Plant response rating, Soybean (soybean (Glycine max); [17]): 0
Plant response rating, Soybean (soybean (Glycine max); [18]): 0
Soybean plant response rating (soybean (Glycine max); [19]): 0
Soybean plant response rating (soybean (Glycine max); [20]): 0
Velvetleaf plant response rating [9, 13]: 0
Plant response rating, Velvetleaf [9, 14]: 0
Plant response rating, Velvetleaf [9, 15]: 0
Plant response rating, Velvetleaf [9, 16]: 0
Plant response rating, Velvetleaf [9, 17]: 0
Plant response rating, Velvetleaf [9, 25]: 0
Velvetleaf plant response rating [9, 19]: 0
Velvetleaf plant response rating [9, 20]: 0
Plant response rating, Barnyardgrass [10, 26]: 20
Plant response rating, Barnyardgrass [10, 28]: 80
Plant response rating, Ducksalad [11, 26]: 0
Plant response rating, Ducksalad [11, 28]: 0
Plant response rating, Rice (rice (Oryza sativa); [26]): 15
Plant response rating, Rice (rice (Oryza sativa); [28]): 80
Plant response rating, Sedge, Umbrella [12, 26]: 0
Plant response rating, Sedge, Umbrella [12, 28]: 0
